Results: patent publication US20240150334A1, “HSD17B13 INHIBITORS AND/OR DEGRADERS” (Pfizer Inc., priority 2022, published 2024)
Counter-ions that a name gives are not always drawn.

What follows are compounds tested against wild type human HSD17B13 (Homo sapiens (Human), UniProt Q7Z5P4) (assay: HEK_Beta-Est LCMS_IC50_Tekcel, whole-cell HEK-HSD17B13 inhibition assay, estrone production by LCMS). Settings: geometric mean, HEK cells stably expressing wild type human HSD17B13, 25 μM FAC beta-estradiol, read-out: HEK_Beta-Est LCMS_IC50—Tekcel GMean IC50.
Type: cell-based
Experimental: HEK_Beta-Est LCMS_IC50_Tekcel
Inhibition potency of test compounds was determined using a whole-cell HEK-HSD17B13 inhibition assay, utilizing a LCMS readout.
HSD17B13 uses the oxidized form of nicotinamide adenine dinucleotide (NAD+) as a cofactor during metabolism of beta-estradiol (substrate), converting NAD+ to the reduced form (NADH) and beta-estradiol to its product (estrone). Estrone production is quantified by LCMS, and used as a measure of HSD17B13 enzyme activity.
([…]: 5% CO2). […] Growth media was then removed from the cell plates and replaced with 10 μL of 2×FAC test compound, and incubated for 1 hour (with lid) at 37° C. […] The reaction was incubated for 2 hours (with lid) at 37° C. […] Amount of product (estrone) was then quantified by LCMS. Data expressed as product area ratio (PAR) were then normalized to control wells using Activity Base (IDBS). Zero percent effect (ZPE) was defined as PAR generated from uninhibited HSD17B13 (vehicle control).

wild type human HSD17B13, sequence (Q7Z5P4 20-300): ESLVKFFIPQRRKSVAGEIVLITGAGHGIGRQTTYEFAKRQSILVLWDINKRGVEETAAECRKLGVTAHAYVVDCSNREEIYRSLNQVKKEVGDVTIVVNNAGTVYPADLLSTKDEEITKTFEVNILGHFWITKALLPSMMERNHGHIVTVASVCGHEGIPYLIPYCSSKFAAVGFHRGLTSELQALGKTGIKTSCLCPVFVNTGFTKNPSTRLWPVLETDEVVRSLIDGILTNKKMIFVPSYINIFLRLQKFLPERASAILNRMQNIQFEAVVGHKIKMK

Compound	IC50 [nM]
O=C(NC[C@H]1CC[C@H](n2cc3ccc(-c4nccs4)cc3n2)CC1)c1cc(F)c(O)c(F)c1 [Example 110, 3,5-difluoro-4-hydroxy-N-({(1r,4r)-4-[6-(1,3-thiazol-2-yl)-2H-indazol-2-yl]cyclohexyl}methyl) benzamide]	110
O=C(NC[C@H]1CC[C@H](n2cc3ccc(-c4cnoc4)cc3n2)CC1)c1cc(F)c(O)c(F)c1 [Example 111, 3,5-difluoro-4-hydroxy-N-({(1r,4r)-4-[6-(1,2-oxazol-4-yl)-2H-indazol-2-yl]cyclohexyl}methyl) benzamide]	81
O=C(NC[C@H]1CC[C@H](n2cc3ccc(-c4cnc5[nH]ccc5c4)cc3n2)CC1)c1cc(F)c(O)c(F)c1 [Example 112, 3,5-difluoro-4-hydroxy-N-({(1r,4r)-4-[6-(1H-pyrrolo[2,3-b]pyridin-5-yl)-2H-indazol-2-yl]cyclohexyl}methyl) benzamide, trifluoroacetate salt]	220
O=C(NC[C@H]1CC[C@H](n2cc3ccc(-c4cccn5ncnc45)cc3n2)CC1)c1cc(F)c(O)c(F)c1 [Example 113, 3,5-difluoro-4-hydroxy-N-({(1r,4r)-4-[6-([1,2,4]triazolo[1,5-a]pyridin-8-yl)-2H-indazol-2-yl]cyclohexyl}methyl) benzamide, trifluoroacetate salt]	320
O=C(NC[C@H]1CC[C@H](n2cc3ccc(-c4csc(N5CCOCC5)n4)cc3n2)CC1)c1cc(F)c(O)c(F)c1 [Example 114, 3,5-difluoro-4-hydroxy-N-{[(1r,4r)-4-{6-[2-(morpholin-4-yl)-1,3-thiazol-4-yl]-2H-indazol-2-yl}cyclohexyl]methyl} benzamide]	170
Cc1cnc(-c2ccc3cn([C@H]4CC[C@H](CNC(=O)c5cc(F)c(O)c(F)c5)CC4)nc3c2)s1 [Example 115, 3,5-difluoro-4-hydroxy-N-({(1r,4r)-4-[6-(5-methyl-1,3-thiazol-2-yl)-2H-indazol-2-yl]cyclohexyl}methyl) benzamide]	190
COc1cccc(-c2ccc3cn([C@H]4CC[C@H](CNC(=O)c5cc(F)c(O)c(F)c5)CC4)nc3c2)n1 [Example 116, 3,5-difluoro-4-hydroxy-N-({(1r,4r)-4-[6-(6-methoxy-pyridin-2-yl)-2H-indazol-2-yl]cyclohexyl}methyl) benzamide, trifluoroacetate salt]	190
O=C(NC[C@H]1CC[C@H](n2cc3ccc(-c4ccn5ccnc5c4)cc3n2)CC1)c1cc(F)c(O)c(F)c1 [Example 117, 3,5-difluoro-4-hydroxy-N-({(1r,4r)-4-[6-(imidazo[1,2-a]pyridin-7-yl)-2H-indazol-2-yl]cyclohexyl}methyl) benzamide, trifluoroacetate salt]	180
Cc1cccc(-c2ccc3cn([C@H]4CC[C@H](CNC(=O)c5cc(F)c(O)c(F)c5)CC4)nc3c2)n1 [Example 118, 3,5-difluoro-4-hydroxy-N-({(1r,4r)-4-[6-(6-methylpyridin-2-yl)-2H-indazol-2-yl]cyclohexyl}methyl) benzamide, trifluoroacetate salt]	230
O=C(NC[C@H]1CC[C@H](n2cc3ccc(-c4ccn5ncnc5c4)cc3n2)CC1)c1cc(F)c(O)c(F)c1 [Example 119, 3,5-difluoro-4-hydroxy-N-({(1r,4r)-4-[6-([1,2,4]triazolo[1,5-a]pyridin-7-yl)-2H-indazol-2-yl]cyclo-hexyl}methyl) benzamide, trifluoroacetate salt]	150
COc1cncc(-c2ccc3cn([C@H]4CC[C@H](CNC(=O)c5cc(F)c(O)c(F)c5)CC4)nc3c2)c1 [Example 120, 3,5-difluoro-4-hydroxy-N-({(1r,4r)-4-[6-(5-methoxypyridin-3-yl)-2H-indazol-2-yl]cyclohexyl}methyl) benzamide, trifluoroacetate salt]	250
CC(C)c1ncc(-c2ccc3cn([C@H]4CC[C@H](CNC(=O)c5cc(F)c(O)c(F)c5)CC4)nc3c2)o1 [Example 121, 3,5-difluoro-4-hydroxy-N-{[(1r,4r)-4-{6-[2-(propan-2-yl)-1,3-oxazol-5-yl]-2H-indazol-2-yl}cyclohexyl]methyl} benzamide]	150
O=C(NC[C@H]1CC[C@H](c2nc(-c3cnc(C(F)(F)F)cn3)no2)CC1)c1cc(F)c(O)c(F)c1F [Example 148, 2,3,5-trifluoro-4-hydroxy-N-{[(1r,4r)-4-{3-[5-(trifluoromethyl)pyrazin-2-yl]-1,2,4-oxadiazol-5-yl}cyclohexyl]methyl} benzamide]	470
O=C(NC[C@H]1CC[C@H](c2nc(-c3cnc(C(F)(F)F)cn3)no2)CC1)c1cc(F)c(O)cc1F [Example 149, 2,5-difluoro-4-hydroxy-N-{[(1r,4r)-4-{3-[5-(trifluoromethyl)pyrazin-2-yl]-1,2,4-oxadiazol-5-yl}cyclohexyl]methyl} benzamide]	430
O=C(NC[C@H]1CC[C@H](n2cc3cc(-c4ncccn4)ccc3n2)CC1)c1cc(F)c(O)c(F)c1 [Example 154, 3,5-difluoro-4-hydroxy-N-({(1r,4r)-4-[5-(pyrimidin-2-yl)-2H-indazol-2-yl]cyclohexyl}methyl) benzamide]	110
O=C(NC[C@H]1CC[C@H](n2cc3cc(-c4cscn4)ccc3n2)CC1)c1cc(F)c(O)c(F)c1 [Example 155, 3,5-difluoro-4-hydroxy-N-({(1r,4r)-4-[5-(1,3-thiazol-4-yl)-2H-indazol-2-yl]cyclohexyl}methyl) benzamide]	120
N#Cc1cccc(-c2ccc3nn([C@H]4CC[C@H](CNC(=O)c5cc(F)c(O)c(F)c5)CC4)cc3c2)c1 [Example 156, N-({(1r,4r)-4-[5-(3-cyanophenyl)-2H-indazol-2-yl]cyclohexyl}methyl)-3,5-difluoro-4-hydroxybenzamide]	170
O=C(NC[C@H]1CC[C@H](n2cc3cc(-c4cncnc4)ccc3n2)CC1)c1cc(F)c(O)c(F)c1 [Example 157, 3,5-difluoro-4-hydroxy-N-({(1r,4r)-4-[5-(pyrimidin-5-yl)-2H-indazol-2-yl]cyclohexyl}methyl) benzamide, trifluoroacetate salt]	270
O=C(NC[C@H]1CC[C@H](n2cc3ccc(-n4cccn4)cc3n2)CC1)c1cc(F)c(O)c(F)c1F [Example 158, 2,3,5-trifluoro-4-hydroxy-N-({(1r,4r)-4-[6-(1H-pyrazol-1-yl)-2H-indazol-2-yl]cyclohexyl}methyl) benzamide, trifluoroacetate salt]	190
Cn1cc(-c2ccc3nn([C@H]4CC[C@H](CNC(=O)c5cc(F)c(O)c(F)c5)CC4)cc3c2)cn1 [Example 159, 3,5-difluoro-4-hydroxy-N-({(1r,4r)-4-[5-(1-methyl-1H-pyrazol-4-yl)-2H-indazol-2-yl]cyclohexyl}methyl) benzamide, trifluoroacetate salt]	91
O=C(NC[C@H]1CC[C@H](n2cc3ccc(-c4cnn(CCO)c4)cc3n2)CC1)c1cc(F)c(O)c(F)c1 [Example 160, 3,5-difluoro-4-hydroxy-N-{[(1r,4r)-4-{6-[1-(2-hydroxyethyl)-1H-pyrazol-4-yl]-2H-indazol-2-yl}cyclo-hexyl]methyl} benzamide, trifluoroacetate salt]	400
O=C(NC[C@H]1CC[C@H](n2cc3cc(-c4cnn(C(F)F)c4)ccc3n2)CC1)c1cc(F)c(O)c(F)c1F [Example 161, N-{[(1r,4r)-4-{5-[1-(difluoromethyl)-1H-pyrazol-4-yl]-2H-indazol-2-yl}cyclo-hexyl]methyl}-2,3,5-trifluoro-4-hydroxy-benzamide]	180
Cc1ccn(-c2ccc3cn([C@H]4CC[C@H](CNC(=O)c5cc(F)c(O)c(F)c5F)CC4)nc3c2)n1 [Example 162, 2,3,5-trifluoro-4-hydroxy-N-({(1r,4r)-4-[6-(3-methyl-1H-pyrazol-1-yl)-2H-indazol-2-yl]cyclohexyl}methyl) benzamide]	310
Cc1cn(-c2ccc3cn([C@H]4CC[C@H](CNC(=O)c5cc(F)c(O)c(F)c5F)CC4)nc3c2)cn1 [Example 163, 2,3,5-trifluoro-4-hydroxy-N-({(1r,4r)-4-[6-(4-methyl-1H-imidazol-1-yl)-2H-indazol-2-yl]cyclo-hexyl}methyl) benzamide]	330
O=C(NC[C@H]1CC[C@H](n2cc3ccc(-c4cnn(C(CO)CCl)c4)cc3n2)CC1)c1cc(F)c(O)c(F)c1 (stereo partly drawn) [Example 164, N-{[(1r,4r)-4-{6-[1-(1-chloro-3-hydroxypropan-2-yl)-1H-pyrazol-4-yl]-2H-indazol-2-yl}cyclohexyl]methyl}-3,5-difluoro-4-hydroxybenzamide, trifluoroacetate salt]	230
O=C(NC[C@H]1CC[C@H](n2cc3ccc(-n4cncn4)cc3n2)CC1)c1cc(F)c(O)c(F)c1F [Example 165, 2,3,5-trifluoro-4-hydroxy-N-({(1r,4r)-4-[6-(1H-1,2,4-triazol-1-yl)-2H-indazol-2-yl]cyclohexyl}methyl) benzamide]	420
O=C(NC[C@H]1CC[C@H](n2cc3ccc(-n4ccnc4)cc3n2)CC1)c1cc(F)c(O)c(F)c1F [Example 166, 2,3,5-trifluoro-4-hydroxy-N-({(1r,4r)-4-[6-(1H-imidazol-1-yl)-2H-indazol-2-yl]cyclohexyl}methyl) benzamide, trifluoroacetate salt]	410
